Data taken from ChEMBL document CHEMBL1201862, “PubChem BioAssay data set” (2004).
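Assay format: 96-well plates, 48-hour exposure. The concentration for 50% growth inhibition is given as GI50.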 Activity calls are given as the source filed them. Cut-off read from the data, not from the text of the source: active = GI50 up to about 1.1 µM and inactive = higher.

Legend:
Assay in all cases: DTP human tumour cell line panel, 48 h
SK-OV-3 = test system: SK-OV-3
HL-60 = test system: HL-60
A498 = test system: A498
NCI-H460 = test system: NCI-H460
UACC-257 = test system: UACC-257
HT-29 = test system: HT-29
TK-10 = test system: TK-10
NCI-H522 = test system: NCI-H522
RPMI-8226 = test system: RPMI-8226
CCRF-CEM = test system: CCRF-CEM
IGROV-1 = test system: IGROV-1
SW-620 = test system: SW-620
PC-3 = test system: PC-3
HOP-62 = test system: HOP-62
SNB-19 = test system: SNB-19
MDA-N = test system: MDA-N
MCF7 = test system: MCF7
COLO 205 = test system: COLO 205
786-0 = test system: 786-0
SK-MEL-2 = test system: SK-MEL-2

How did the GI50 (SK-OV-3) turn out when Cc1csc2nc(-c3cccc([N+](=O)[O-])c3)c(/C=N/N=C(N)N)n12 was run?
Its GI50 is 1.82 µM (inactive).

And the GI50 (HL-60)?
Its GI50 is 1.25 µM (inactive).

What about the GI50 (A498) of the same molecule?
The GI50 was 0.933 µM (active).

And the GI50 (NCI-H460)?
Its GI50 is 3.2 µM (inactive).

And the GI50 (UACC-257)?
Its GI50 is 1.78 µM (inactive).

And the GI50 (HT-29)?
Its GI50 is 1.81 µM (inactive).

And the GI50 (TK-10)?
Its GI50 is 1.78 µM (inactive).

What about the GI50 (NCI-H522) of the same molecule?
The GI50 was 1.83 µM (inactive).

What about the GI50 (RPMI-8226) of the same molecule?
The GI50 was 1.86 µM (inactive).

What about the GI50 (CCRF-CEM) of the same molecule?
Its GI50 is 1.92 µM (inactive).

What about the GI50 (IGROV-1) of the same molecule?
Its GI50 is 1.81 µM (inactive).

And the GI50 (SW-620)?
The GI50 was 1.71 µM (inactive).

And the GI50 (PC-3)?
The GI50 was 1.63 µM (inactive).

What about the GI50 (HOP-62) of the same molecule?
Its GI50 is 1.71 µM (inactive).

What about the GI50 (SNB-19) of the same molecule?
The GI50 was 1.9 µM (inactive).

And the GI50 (MDA-N)?
The GI50 was 1.67 µM (inactive).

What about the GI50 (MCF7) of the same molecule?
The GI50 was 1.82 µM (inactive).

And the GI50 (COLO 205)?
The GI50 was 1.78 µM (inactive).

What about the GI50 (786-0) of the same molecule?
The GI50 was 1.57 µM (inactive).

What about the GI50 (SK-MEL-2) of the same molecule?
Its GI50 is 1.77 µM (inactive).

How did the GI50 (SK-OV-3) turn out when COC1CC(O[C@H]2CC[C@@]3(C)[C@@H](CC[C@]4(O)[C@@H]3CC[C@]3(C)[C@@H](C(C)=O)[C@H](OC(=O)CC(C)C)[C@@H](OC(=O)c5ccccc5)[C@@]34O)C2)OC(C)C1OC1CC(OC)C(OC2OC(C)C(O)C(OC)C2O)C(C)O1 (stereo not given in full) was run?
The GI50 was > 25 µM (inactive).

What about the GI50 (HL-60) of the same molecule?
Its GI50 is 7.19 µM (inactive).

What about the GI50 (A498) of the same molecule?
Its GI50 is > 25 µM (inactive).

What about the GI50 (NCI-H460) of the same molecule?
Its GI50 is 9.53 µM (inactive).

What about the GI50 (UACC-257) of the same molecule?
Its GI50 is > 25 µM (inactive).

What about the GI50 (HT-29) of the same molecule?
The GI50 was 11.9 µM (inactive).

And the GI50 (TK-10)?
Its GI50 is 18.3 µM (inactive).

And the GI50 (NCI-H522)?
The GI50 was 13.1 µM (inactive).

What about the GI50 (RPMI-8226) of the same molecule?
The GI50 was 6.12 µM (inactive).

What about the GI50 (CCRF-CEM) of the same molecule?
The GI50 was 17.8 µM (inactive).

And the GI50 (IGROV-1)?
The GI50 was 11.6 µM (inactive).

And the GI50 (SW-620)?
The GI50 was > 25 µM (inactive).

And the GI50 (PC-3)?
Its GI50 is 11.7 µM (inactive).

What about the GI50 (HOP-62) of the same molecule?
Its GI50 is 16 µM (inactive).

What about the GI50 (SNB-19) of the same molecule?
The GI50 was > 25 µM (inactive).

And the GI50 (MDA-N)?
The GI50 was > 25 µM (inactive).

What about the GI50 (MCF7) of the same molecule?
Its GI50 is 11.4 µM (inactive).

What about the GI50 (COLO 205) of the same molecule?
Its GI50 is 5.13 µM (inactive).

And the GI50 (786-0)?
Its GI50 is > 25 µM (inactive).

What about the GI50 (SK-MEL-2) of the same molecule?
Its GI50 is > 25 µM (inactive).

For CCN(C)c1nc(N(C)CC)c2nc(N(C)CC)nc(N(C)CC)c2n1, which GI50 (SK-OV-3) is on record?
The GI50 was > 100 µM (inactive).

And the GI50 (HL-60)?
The GI50 was > 100 µM (inactive).

And the GI50 (A498)?
Its GI50 is > 100 µM (inactive).

And the GI50 (NCI-H460)?
The GI50 was > 100 µM (inactive).

What about the GI50 (UACC-257) of the same molecule?
The GI50 was > 100 µM (inactive).

What about the GI50 (HT-29) of the same molecule?
Its GI50 is > 100 µM (inactive).

What about the GI50 (TK-10) of the same molecule?
Its GI50 is > 100 µM (inactive).

What about the GI50 (NCI-H522) of the same molecule?
Its GI50 is > 100 µM (inactive).

And the GI50 (RPMI-8226)?
Its GI50 is > 100 µM (inactive).

And the GI50 (CCRF-CEM)?
The GI50 was > 100 µM (inactive).

And the GI50 (IGROV-1)?
Its GI50 is > 100 µM (inactive).

What about the GI50 (SW-620) of the same molecule?
Its GI50 is > 100 µM (inactive).

And the GI50 (PC-3)?
Its GI50 is > 100 µM (inactive).

What about the GI50 (HOP-62) of the same molecule?
Its GI50 is > 100 µM (inactive).

What about the GI50 (SNB-19) of the same molecule?
The GI50 was > 100 µM (inactive).

What about the GI50 (MDA-N) of the same molecule?
Its GI50 is > 100 µM (inactive).

What about the GI50 (MCF7) of the same molecule?
The GI50 was > 100 µM (inactive).

What about the GI50 (COLO 205) of the same molecule?
The GI50 was > 100 µM (inactive).

What about the GI50 (786-0) of the same molecule?
The GI50 was > 100 µM (inactive).

What about the GI50 (SK-MEL-2) of the same molecule?
The GI50 was > 100 µM (inactive).
